# pIC50: −log10 of the molar value.
# What was measured:
# [1] = tested on: human small cell lung cancer NCI-H1417 cells subcutaneous xenograft tumor; assay: In vivo pharmacodynamic study, NCI-H1417 subcutaneous xenograft tumor CB-17 SCID mouse model; design: species or system CB-17 SCID mice
# Description: The purpose of this experiment was to investigate the efficacy of some of the compounds of the present invention in the in vivo xenograft tumor of human small cell lung cancer NCI-H1417 cells in a CB-17 SCID mouse model.
# Week age and weight: 6-8 weeks old, weight 18-23 g
# Human small cell lung cancer NCI-H1417 cells were cultured in vitro in a single layer cultured in RPMI-1640 medium (Sigma-aldrich, R0883), supplemented with 10% fetal bovine serum and cultured at 37° C. 5% CO2. When the cell saturation is 80%-90%. The cells are harvested, counted, and inoculated.
# 0.2 mL of 10×10^6 (NCI-H1417 cells were subcutaneously inoculated into the right back of each mouse (PBS:Matrigel=1:1). After 21 days of tumor inoculation, group administration was started when the average volume reached 107 mm^3.
# The experimental solvent was the 10% hydroxypropyl-β-cyclodextrin solution. The preparation method was as follows: 100 g of hydroxypropyl-β-cyclodextrin was weighed into a 1000 mL jar, 800 mL of ultrapure water was added, stirred overnight until completely dissolved, and then made up to 1000 mL. The test substance was dissolved in a solvent, and was prepared into a uniform solution of a certain concentration and stored at 4° C.
# The experimental indicator is to investigate whether tumor growth is inhibited, delayed or cured. Tumor diameters were measured twice a week using vernier calipers. The tumor volume is calculated as: V=0.5a×b^2, and a and b represent the long and short diameters of the tumor, respectively.
# The antitumor effect of the compound was evaluated by TG (%). TGI (%), reflecting the tumor growth inhibition rate. TGI (%) calculation: TGI (%)=[1−(the average tumor volume at the end of a treatment group−the average tumor volume at the beginning of the treatment group)/(the average tumor volume at the end of the treatment of the solvent control group−The average tumor volume at the start of treatment in the solvent control group) was ×100%. Solvent control: Vehicle (10% hydroxypropyl-β-cyclodextrin solution).
# H1417 cells = assay: Cell proliferation inhibitory activity on H1417 cells (CellTiter-Glo, 10 days); format: cell-based, human; details: for pIC50: 10 days incubation; for Emax: NCI-H1417, H1417 cells, read-out: Maximum inhibition percentage (%)
# In short: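 H1417 cells in RPMI 1640 with fetal bovine serum were treated with 10-point 3-fold compound dilutions for 10 days. Viability was read by CellTiter-Glo luminescence. IC50 came from a four-parameter fit of percent inhibition, and maximal inhibition was also categorized.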
# human LSD1 = human LSD1 (Homo sapiens (Human), UniProt O60341); assay: Evaluation of enzyme activity: LSD1 fluorescence coupling enzyme assay (HRP/Amplex Red); format: biochemical; details: human LSD1, histone H3(1-21)K4me2 peptide 10 μM, 30 min pre-incubation
# In short: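 Human LSD1 preincubated 30 min with compound, then reacted with H3(1-21)K4me2 peptide (10 μM). FAD-dependent H2O2 detected via HRP/Amplex Red fluorescence (Ex/Em 535/590). Ten-dose, 3-fold dilutions in duplicate from 10 μM gave IC50s, binned into activity classes.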
# hERG potassium channel = hERG potassium channel (Homo sapiens (Human), UniProt Q12809); assay: Assay on inhibiting hERG potassium channel (automatic patch clamp, CHO-hERG cells); format: cell-based; details: Qpatch, max test concentration 40 μM
# Description: Experimental purpose: Using automatic patch clamp method to detect the effect of the sample to be tested on hERG potassium channel.
# 4.1.1 CHO-hERG cells were cultured in 175 cm^2 flasks. When the cell density was increased to 60-80%, the culture solution was removed and the resultant was washed with 7 mL PBS (Phosphate Buffered Saline phosphate buffer), then 3 mL of digestive juice was added to digest.
# 4.1.2 After the digestion finished, 7 mL culture solution was added to neutralize. Then centrifuge, aspirate the supernatant, and then resuspend by adding 5 mL culture solution to ensure a cell density of 2-5×10^6/mL.
# Single cell high impedance sealing and whole cell pattern formation were all done automatically by the Qpatch instrument. After the whole-cell recording mode was obtained, the cells were clamped at −80 mV. 50-Millisecond−50 mV preamplifier was applied prior to a 5 second+40 mV depolarization stimulus. Then the voltage was repolarized to −50 mV for 5 seconds and back to −80 mV. This voltage stimulation was applied every 15 seconds, and the extracellular fluid was recorded over 5 minutes after 2 minutes' record, and then the administration process was started. The compound concentration was started from the lowest test concentration, and each test concentration was given for 2.5 minutes. Test at least 3 cells (n≥3) for each concentration.
# 4.4.1 Dilute 20 mM mother liquor of the compound with extracellular fluid 5 μL of 20 mM mother liquor of the compound was added to 2495 μL extracellular fluid, and the mixture was 500-fold diluted to 40 μM. Then 0.2% DMSO in extracellular fluid was 3-fold diluted sequentially to obtain the final concentration to be tested.
# 4.4.2 The max test concentration was 40 μM, 6 concentrations were 40, 13.33, 4.44, 1.48, 0.49, and 0.16 μM respectively.
# Experimental data was analyzed by XLFit software.
# [2] = Pharmacokinetic evaluation in C57BL/6 mice after intravenous and oral administration; format: in vivo; details: male, mouse, plasma; for Cmax / clearance / half-life / Vd: IV 1 mg/kg; for Cmax: oral 2 mg/kg, route of Cmax not stated, read-out: max concentration Cmax; for clearance: read-out: clearance CL; for half-life: read-out: half-life T1/2 (IV, h) (converted); for Vd: read-out: volumes of distribution Vdss; for bioavailability: PO 2 mg/kg vs IV 1 mg/kg, read-out: bioavailability F (%); for AUC(0-t): PO 2 mg/kg, read-out: the area under the plasma concentration-time curve AUC0-last PO
# Description: Experimental purposes: To test the pharmacokinetics of compounds in C57BL/6 mice
# C57BL/6 mice (male, 7-9 weeks old, Shanghai Slack)
# Test the pharmacokinetics characteristics of rodents after intravenous and oral administration in accordance with standard protocols, and the candidate compound was formulated into a clear solution in the experiment. The mice were administered by intravenous injection and orally once. The intravenous and oral vehicle is a 10% aqueous solution of hydroxypropyl β-cyclodextrin or a physiological saline solution. Six male C57BL/6 mice were employed in this assay, three of them were administered intravenously at a dose of 1 mg/kg, plasma samples were collected at 0 h (before administration) and 0.0833, 0.25, 0.5, 1, 2, 4, 7, 24 h after administration. Another three mice were administered by oral gavage at a dose of 2 mg/kg, plasma samples were collected at 0 h (before administration) and 0.5, 1, 2, 3, 4, 6, 24 h after administration. Collect whole blood samples within 24 hours, centrifuge at 3000 g for 15 minutes, separate the supernatant to obtain a plasma sample, 4 times volume of the internal standard acetonitrile solution was added to precipitate the protein. Centrifuge the supernatant and add an equal volume of water and centrifuge to take the supernatant. LC-MS/MS was used to quantitatively analyze plasma concentrations and calculate pharmacokinetic parameters such as max concentration (Cmax), clearance (CL), half-life (T1/2), volumes of distribution (Vdss), the area under the plasma concentration-time curve (AUC0-last), bioavailability (F), etc.
# [3] = 1 mg/kg, ip, BIW, day 28 after administration
# [4] = 1 mg/kg, ip, BIW, day 34 after administration
# [5] = Homo sapiens, NCI-H1417, 240 h, H1417 cells
# [6] = Homo sapiens, highest percentage inhibition of cell viability
# [7] = 5 mg/kg, PO, QD, day 34 after administration
# [8] = 1.5 mg/kg, PO, QD, day 27 after administration
# [9] = 2.5 mg/kg, PO, BID, day 34 after administration
# Chain of hERG potassium channel (Q12809 whole entry): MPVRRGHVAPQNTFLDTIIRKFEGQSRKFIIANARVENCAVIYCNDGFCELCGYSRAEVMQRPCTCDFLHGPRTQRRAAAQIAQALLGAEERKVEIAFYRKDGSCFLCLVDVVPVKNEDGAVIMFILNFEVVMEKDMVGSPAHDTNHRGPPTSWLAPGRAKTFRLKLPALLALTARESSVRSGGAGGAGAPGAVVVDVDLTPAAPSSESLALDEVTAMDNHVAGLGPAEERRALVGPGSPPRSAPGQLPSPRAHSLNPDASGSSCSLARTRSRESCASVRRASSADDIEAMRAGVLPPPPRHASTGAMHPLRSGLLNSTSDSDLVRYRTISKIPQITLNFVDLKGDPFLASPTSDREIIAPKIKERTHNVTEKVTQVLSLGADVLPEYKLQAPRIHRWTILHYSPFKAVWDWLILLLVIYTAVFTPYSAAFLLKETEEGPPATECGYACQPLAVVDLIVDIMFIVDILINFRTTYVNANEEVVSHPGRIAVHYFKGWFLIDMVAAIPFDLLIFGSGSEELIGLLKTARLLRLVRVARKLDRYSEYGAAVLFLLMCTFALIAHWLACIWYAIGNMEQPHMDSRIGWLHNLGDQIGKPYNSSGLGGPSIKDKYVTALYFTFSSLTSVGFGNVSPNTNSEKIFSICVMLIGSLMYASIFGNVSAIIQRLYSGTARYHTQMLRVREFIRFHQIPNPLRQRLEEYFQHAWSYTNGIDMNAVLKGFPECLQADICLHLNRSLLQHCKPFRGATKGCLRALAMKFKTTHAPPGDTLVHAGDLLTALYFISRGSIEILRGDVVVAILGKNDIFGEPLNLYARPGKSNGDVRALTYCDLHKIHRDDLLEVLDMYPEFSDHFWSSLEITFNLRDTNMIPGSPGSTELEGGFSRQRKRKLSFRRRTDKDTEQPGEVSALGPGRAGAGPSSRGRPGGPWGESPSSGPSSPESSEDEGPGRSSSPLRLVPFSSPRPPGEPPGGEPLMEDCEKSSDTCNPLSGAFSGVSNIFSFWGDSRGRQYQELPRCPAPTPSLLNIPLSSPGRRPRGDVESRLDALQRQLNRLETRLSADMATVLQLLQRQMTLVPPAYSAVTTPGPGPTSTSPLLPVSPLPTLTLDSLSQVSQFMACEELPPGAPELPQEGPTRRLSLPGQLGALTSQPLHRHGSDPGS
SMILES,pIC50 (H1417 cells; [5]),Emax (H1417 cells; [6]),"TGI (%) [1, 7]","Tumor volume (mm^3) (Day 34) [1, 7]",pIC50 (human LSD1),pIC50 (hERG potassium channel),"TGI (%) [1, 8]","Tumor volume (mm^3) (Day 27) [1, 8]",also measured
N.N.[Cl][Pt][Cl] [Cisplatin],,,,,,,,,"TGI (%) [1, 3]: 90%; Tumor volume (mm^3) (Day 28) [1, 3]: 150 ± 9 mm^3; TGI (%) [1, 4]: 61.2%; Tumor volume (mm^3) (Day 34) [1, 4]: 328 ± 37 mm^3"
N[C@H]1CC[C@H](c2nc(C3(CN[C@H]4CC4c4ccccc4)CC3)no2)CC1 (stereo partly shown) [Example 142],6.00 to 6.30,70 to 90%,94.9%,136 ± 21 mm^3,≥ 7.30,,,,
N[C@H]1CC[C@H](c2nc(C3(CN[C@H]4C[C@@H]4c4ccccc4)CC3)no2)CC1 [Example 143],,,93.3%,145 ± 29 mm^3,7.00 to 7.30,,,,"pIC50 (H1417 cells; H1417 cells): 6.00 to 6.30; Maximum inhibition percentage (%) (H1417 cells; H1417 cells, highest percentage inhibition of cell viability): C (70%>C≥50%)"
N[C@H]1C[C@H](c2nc(C3(CN[C@@H]4C[C@H]4c4ccccc4)CC3)no2)C1 [Example 146],6.00 to 6.30,90 to 100%,,,≥ 7.30,< 4.40,,,
NC1CC2(C1)CC(c1nc(C3(CN[C@@H]4C[C@H]4c4ccccc4)CC3)no1)C2 (stereo partly shown) [Example 151],6.30 to 7.00,90 to 100%,,,≥ 7.30,,66.3%,250 ± 50 mm^3,
NC12CCC(c3nc(C4(CN[C@@H]5C[C@H]5c5ccccc5)CC4)no3)(CC1)CC2 [Example 155],6.30 to 7.00,90 to 100%,,,≥ 7.30,< 4.40,78.7%,200 ± 15 mm^3,
O=C(O)[C@H]1CC[C@H](c2nc(C3(CN[C@@H]4C[C@H]4c4ccccc4)CC3)no2)CC1 [Example 167],,,78.2%,231 ± 28 mm^3,6.30 to 7.00,,,,"Cmax [2]: 5090 ng/mL; clearance [2]: 11.6 mL/min/kg; half-life [2]: 1.4 h; Vd [2]: 0.4 L/kg; bioavailability [2]: 48.1%; AUC(0-t) [2]: 3.51 µM·h; TGI (%) [1, 9]: 81.4%; Tumor volume (mm^3) (Day 34) [1, 9]: 213 ± 37 mm^3"
CN[C@H]1CC[C@H](c2nc(C3(CN[C@@H]4C[C@H]4c4ccccc4)CC3)no2)CC1 [Example 232],6.00 to 6.30,70 to 90%,,,7.00 to 7.30,< 4.40,51.1%,313 ± 28 mm^3,
N[C@H]1CC[C@H](c2noc(C3(CN[C@@H]4C[C@H]4c4ccccc4)CC3)n2)CC1 [Example 242],≥ 7.00,90 to 100%,,,≥ 7.30,,,,Cmax [2]: 179 ng/mL; clearance [2]: 72.1 mL/min/kg; half-life [2]: 2 h; Vd [2]: 10.3 L/kg; bioavailability [2]: 57.5%; AUC(0-t) [2]: 0.712 µM·h
